The source made the active and inactive calls. No cut-off for these calls is given here.
What was measured:
[1] = tested on: Mus musculus; assay: Inhibition of intestinal dysbiosis in SCID/NOD mouse xenografted with human Jurkat cells assessed as decrease in abundance of parabacteroides in cecum at 40 mg/kg, po administered once a day for 3 weeks by multiplexed 16S rRNA gene sequencing analysis; type: functional, organism-based; conditions: dose 40.0 mg/kg/day
[2] = tested on: Mus musculus; assay: Induction of immune response in SCID/NOD mouse xenografted with human Jurkat cells assessed as increase in NK cells in spleen at 40 mg/kg, po administered once a day for 3 weeks by ELISA reader method; type: functional, organism-based; conditions: dose 40.0 mg/kg/day
[3] = tested on: Jurkat; assay: Antitumour activity against human Jurkat cells xenografted in SCID/NOD mouse assessed as reduction of inactivity and messy hair at 40 mg/kg, po administered once a day for 3 weeks; type: functional, organism-based; conditions: dose 40.0 mg/kg/day
[4] = tested on: Mus musculus; assay: Inhibition of intestinal dysbiosis in SCID/NOD mouse xenografted with human Jurkat cells assessed as increase in abundance of Akkermansia in cecum at 40 mg/kg, po administered once a day for 3 weeks by multiplexed 16S rRNA gene sequencing analysis; type: functional, organism-based; conditions: dose 40.0 mg/kg/day
[5] = tested on: Mus musculus; assay: Inhibition of spleen infiltration in SCID/NOD mouse xenografted with human Jurkat cells assessed as reduction in spleen index at 40 mg/kg, po administered once a day for 3 weeks; type: functional, organism-based; conditions: dose 40.0 mg/kg/day
[6] = tested on: Mus musculus; assay: In vivo inhibition of PI3K phosphorylation at Ser249 residue in spleen of SCID/NOD mouse xenografted with human Jurkat cells at 40 mg/kg, po administered once a day for 3 weeks by Western blot method; type: functional, organism-based; conditions: dose 40.0 mg/kg/day
[7] = tested on: Mus musculus; assay: Induction of intestinal homeostasis in SCID/NOD mouse xenografted with human Jurkat cells assessed as upregulation of occludin mRNA levels in colon at 40 mg/kg, po administered once a day for 3 weeks by real time RT-PCR analysis; type: functional, organism-based; conditions: dose 40.0 mg/kg/day
[8] = tested on: Mus musculus; assay: In vivo inhibition of Akt phosphorylation at Ser473 residue in spleen of SCID/NOD mouse xenografted with human Jurkat cells at 40 mg/kg, po administered once a day for 3 weeks by Western blot method; type: functional, organism-based; conditions: dose 40.0 mg/kg/day
[9] = tested on: Mus musculus; assay: Induction of immune response in SCID/NOD mouse xenografted with human Jurkat cells assessed as decrease in IL-10 level in spleen at 40 mg/kg, po administered once a day for 3 weeks by ELISA reader method; type: functional, organism-based; conditions: dose 40.0 mg/kg/day
[10] = tested on: Mus musculus; assay: Induction of intestinal homeostasis in SCID/NOD mouse xenografted with human Jurkat cells assessed as decrease in disordered arrangement of epithelial cells in the colon at 40 mg/kg, po administered once a day for 3 weeks by AB-PAS staining based microscopic analysis; type: functional, organism-based; conditions: dose 40.0 mg/kg/day
[11] = tested on: Mus musculus; assay: Inhibition of spleen infiltration in SCID/NOD mouse xenografted with human Jurkat cells assessed as decrease in CD3 expression in spleen at 40 mg/kg, po once a day for 3 weeks by immunohistochemical staining method; type: functional, organism-based; conditions: dose 40.0 mg/kg/day
[12] = tested on: Mus musculus; assay: Inhibition of intestinal inflammation in SCID/NOD mouse xenografted with human Jurkat cells assessed as increase in IL-10 level in colon at 40 mg/kg, po administered once a day for 3 weeks by ELISA; type: functional, organism-based; conditions: dose 40.0 mg/kg/day
[13] = tested on: Mus musculus; assay: Inhibition of intestinal dysbiosis in SCID/NOD mouse xenografted with human Jurkat cells assessed as increase in abundance of Lactobacillus in cecum at 40 mg/kg, po administered once a day for 3 weeks by multiplexed 16S rRNA gene sequencing analysis; type: functional, organism-based; conditions: dose 40.0 mg/kg/day
[14] = tested on: Mus musculus; assay: Inhibition of intestinal dysbiosis in SCID/NOD mouse xenografted with human Jurkat cells assessed as increase in abundance of Lachnospiraceae_ NK4A136_group in cecum at 40 mg/kg, po administered once a day for 3 weeks by multiplexed 16S rRNA gene sequencing analysis; type: functional, organism-based; conditions: dose 40.0 mg/kg/day
[15] = tested on: Mus musculus; assay: Induction of immune response in SCID/NOD mouse xenografted with human Jurkat cells assessed as decrease in IL-6 level in spleen at 40 mg/kg, po administered once a day for 3 weeks by ELISA reader method; type: functional, organism-based; conditions: dose 40.0 mg/kg/day
[16] = tested on: Mus musculus; assay: Induction of immune response in SCID/NOD mouse xenografted with human Jurkat cells assessed as increase in IL-2 level in spleen at 40 mg/kg, po administered once a day for 3 weeks by ELISA reader method; type: functional, organism-based; conditions: dose 40.0 mg/kg/day
[17] = tested on: Jurkat; assay: Antitumour activity against human Jurkat cells xenografted in SCID/NOD mouse assessed as proportion of CD45-positive cells in peripheral blood at 40 mg/kg, po administered once a day for 3 weeks by immunophenotyping based flow cytometry method (reference value: 4.88%); type: functional; conditions: dose 40 mg/kg/day
[18] = tested on: Mus musculus; assay: Inhibition of intestinal dysbiosis in SCID/NOD mouse xenografted with human Jurkat cells assessed as decrease in abundance of Proteobacteria in cecum at 40 mg/kg, po administered once a day for 3 weeks by multiplexed 16S rRNA gene sequencing analysis; type: functional, organism-based; conditions: dose 40.0 mg/kg/day
[19] = tested on: Mus musculus; assay: Induction of intestinal homeostasis in SCID/NOD mouse xenografted with human Jurkat cells assessed as increase in goblet cells in the glands at 40 mg/kg, po administered once a day for 3 weeks by Hand E staining based microscopic analysis; type: functional, organism-based; conditions: dose 40.0 mg/kg/day
[20] = tested on: Mus musculus; assay: Inhibition of intestinal dysbiosis in SCID/NOD mouse xenografted with human Jurkat cells assessed as increase in abundance of Bacteroidetes in cecum at 40 mg/kg, po administered once a day for 3 weeks by multiplexed 16S rRNA gene sequencing analysis; type: functional, organism-based; conditions: dose 40.0 mg/kg/day
[21] = tested on: Mus musculus; assay: Induction of intestinal homeostasis in SCID/NOD mouse xenografted with human Jurkat cells assessed as upregulation of claudin-1 mRNA levels in colon at 40 mg/kg, po administered once a day for 3 weeks by real time RT-PCR analysis; type: functional, organism-based; conditions: dose 40.0 mg/kg/day
[22] = tested on: Mus musculus; assay: Induction of immune response in SCID/NOD mouse xenografted with human Jurkat cells assessed as decrease in IL-4 level in spleen at 40 mg/kg, po administered once a day for 3 weeks by ELISA reader method; type: functional, organism-based; conditions: dose 40.0 mg/kg/day
[23] = tested on: Jurkat; assay: Antitumour activity against human Jurkat cells xenografted in SCID/NOD mouse assessed as increase in body weight at 40 mg/kg, po administered once a day for 3 weeks; type: functional, organism-based; conditions: dose 40.0 mg/kg/day
[24] = tested on: Mus musculus; assay: Inhibition of spleen infiltration in SCID/NOD mouse xenografted with human Jurkat cells assessed as reduction in spleen enlargement at 40 mg/kg, po administered once a day for 3 weeks; type: functional, organism-based; conditions: dose 40.0 mg/kg/day

SMILES: CC(C)=CCC[C@](C)(O)[C@H]1CC[C@]2(C)[C@@H]1[C@H](O)C[C@@H]1[C@@]3(C)CC[C@H](O[C@@H]4O[C@H](CO)[C@@H](O)[C@H](O)[C@H]4O)C(C)(C)[C@@H]3CC[C@]12C [GINSENOSIDE RH2]
- inhibition [1]: Active
- Activity [2]: Active
- Activity [3]: Active
- inhibition [4]: Active
- inhibition [5]: Active
- inhibition [6]: Active
- Activity [7]: Active
- inhibition [8]: Active
- Activity [9]: Active
- Activity [10]: Active
- inhibition [11]: Active
- inhibition [12]: Active
- inhibition [13]: Active
- inhibition [14]: Active
- Activity [15]: Active
- Activity [16]: Active
- Activity [17]: 1.28%
- inhibition [18]: Active
- Activity [19]: Active
- inhibition [20]: Active
- Activity [21]: Active
- Activity [22]: Active
- Activity [23]: Active
- inhibition [24]: Active

— ChEMBL document CHEMBL4706513, “New insight into 20(S)-ginsenoside Rh2 against T-cell acute lymphoblastic leukemia associated with the gut microbiota and the immune system” (2020)
